Holding throughout (test): NCI-60 cell line screen, 48 h
Assay [1] concerns SR.
Assay [2] relates to T47D.
Assay [3] relates to OVCAR-3.
Assay [4] deals with SN12C.
Assay [5] has as its system 786-0.
The subject of assay [6] is NCI-H522.
Assay [7] relates to DU-145.
The subject of assay [8] is HT-29.
Assay [9] deals with NCI/ADR-RES.
The test system of assay [10] is HCT-116.
In assay [11] the test system is COLO 205.
For assay [12], the system named is MOLT-4.
Assay [13] relates to MDA-MB-231.
Assay [14] deals with UACC-257.
The subject of assay [15] is HOP-62.
Assay [16] deals with BT-549.
Assay [17] deals with HL-60.
Assay [18] deals with IGROV-1.
Assay [19] has as its system MCF7.
Assay [20] relates to SF-268.

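Each compound was tested at five concentrations against cells in 96-well plates for 48 hours. Here, GI50 denotes the concentration required for 50% inhibition of growth.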 Active and inactive are the calls of the source. Cut-off read from the data, not from the text of the source: active = GI50 up to about 1.1 µM and inactive = higher. Some results are limits rather than exact numbers.

`COc1cccc(C(=O)C(O)c2cccc(OC)c2OC)c1OC` (stereo not given): the GI50 in assay [1], in [2], in [3], in assay [4], in assay [5] and in [6] was > 100 µM (inactive) throughout. The GI50 in assay [7], in assay [8], in assay [9], in assay [10], in assay [11] and in assay [12] was > 100 µM (inactive) throughout. Further, the GI50 in assay [13], in assay [14], in assay [15], in assay [16], in [17] and in [18] was > 100 µM (inactive) each time. Also, the GI50 in [19] and in [20] was > 100 µM (inactive) each time.

`O=C(NCCc1ccc(F)cc1)c1cc(/C=C/c2cc(O)ccc2O)ccc1O`: the GI50 in assay [1] was 2.96 µM (inactive); in assay [2], 2.24 µM (inactive); in assay [3], 2.56 µM (inactive); in assay [4], 5.51 µM (inactive); in assay [5], 2.24 µM (inactive); in assay [6], 1.52 µM (inactive). The GI50 is 10.3 µM (inactive) in [7]; 14.4 µM (inactive) in assay [8]; 2.69 µM (inactive) in assay [9]; 1.95 µM (inactive) in assay [10]; 3.14 µM (inactive) in assay [11]; 2.48 µM (inactive) in assay [12]. The GI50 in assay [13] was 3.3 µM (inactive); in [14], 2.41 µM (inactive); in assay [15] it was 6.11 µM (inactive); in assay [16], 1.44 µM (inactive); in [17] it was 2.38 µM (inactive); in [18], 2.31 µM (inactive). In addition, the GI50 in assay [19] was 2.45 µM (inactive); in assay [20], 3.47 µM (inactive).

In the case of `CN(C)CCNc1ccc2nnn3c4ccc(Cl)cc4c(=O)c1c23`, the GI50 was 1.33 µM (inactive) in assay [1]; 14.4 µM (inactive) in assay [2]; 5.6 µM (inactive) in assay [3]; 2.36 µM (inactive) in assay [4]; 2.42 µM (inactive) in assay [5]; 2.49 µM (inactive) in assay [6]. For the same compound, the GI50 was 5.22 µM (inactive) in assay [7]; 1.88 µM (inactive) in [8]; 1.04 µM (active) in assay [9]; 1.48 µM (inactive) in assay [10]; 1.18 µM (inactive) in assay [11]; 0.624 µM (active) in assay [12]. Besides, the GI50 in assay [13] is 11.1 µM (inactive); in assay [14] it was 5.19 µM (inactive); in assay [15] it was 4.18 µM (inactive); in assay [16], 16 µM (inactive); in assay [17] it was 4.73 µM (inactive); in assay [18] it was 3.65 µM (inactive). The results for the GI50 in assay [19] and in assay [20] were 5.01 µM (inactive) and 3.4 µM (inactive), respectively.

With `COc1cccc2c1OC(c1cccc3ccccc13)C([N+](=O)[O-])=C2` (stereo not given), the GI50 in assay [1] was 0.604 µM (active); in assay [2], 2.22 µM (inactive); in assay [3], 1.34 µM (inactive); in [4], 2 µM (inactive); in assay [5], 1.87 µM (inactive); in assay [6] it was 1.33 µM (inactive). Further, the GI50 in assay [7] was 2.65 µM (inactive); in assay [8], 1.92 µM (inactive); in assay [9], 1.71 µM (inactive); in [10], 1.21 µM (inactive); in assay [11], 1.92 µM (inactive); in assay [12], 0.552 µM (active). In addition, the GI50 in assay [13] is 2.12 µM (inactive); in assay [14], 1.54 µM (inactive); in assay [15], 2.1 µM (inactive); in assay [16] it was 1.17 µM (inactive); in [17], 0.612 µM (active); in [18], 2.49 µM (inactive). Further, the figures for the GI50 in assay [19] and in assay [20] were 0.728 µM (active) and 2.96 µM (inactive), respectively.

Turning to `COc1cc2ncnc(Nc3cccc(Br)c3)c2cc1OC`, the GI50 was 20.3 µM (inactive) in [1]; 6.81 µM (inactive) in assay [2]; 5.14 µM (inactive) in assay [3]; 13.2 µM (inactive) in assay [4]; 2.11 µM (inactive) in [5]; 0.338 µM (active) in assay [6]. The GI50 in [7] was 0.0741 µM (active); in assay [8], 3.83 µM (inactive); in assay [9], 2.46 µM (inactive); in assay [10], 14.4 µM (inactive); in [11], 4.43 µM (inactive); in assay [12] it was 16.6 µM (inactive). Moreover, the GI50 in [13] was 5.61 µM (inactive); in assay [14] it was 7.5 µM (inactive); in assay [15] it was 10.4 µM (inactive); in assay [16], 12.8 µM (inactive); in assay [17], > 28.8 µM (inactive); in [18] it was 2.02 µM (inactive). The results for the GI50 in assay [19] and in assay [20] were 23.1 µM (inactive) and 3.81 µM (inactive), respectively.

As to `CCn1cc2c(=O)n3ncn(-c4ccc(Br)cc4)c3nc2n1`, the GI50 in [1] is > 100 µM (inactive); in assay [2] it was > 100 µM (inactive); in assay [3], > 100 µM (inactive); in assay [4] it was > 100 µM (inactive); in assay [5], 63.2 µM (inactive); in assay [6], > 100 µM (inactive). Also, the GI50 in assay [7], in assay [8], in [9], in assay [10], in assay [11] and in assay [12] was > 100 µM (inactive) throughout. Further, the GI50 in assay [13] was 40.6 µM (inactive); in assay [14], > 100 µM (inactive); in [15], 38.5 µM (inactive); in [16], > 100 µM (inactive); in assay [17] it was > 100 µM (inactive); in assay [18], 29.6 µM (inactive). The GI50 in assay [19] and in assay [20] was > 100 µM (inactive) each time.

For `Cc1c(C2=C(Br)C(=O)N(C)C2=O)c(=O)n(C)c(=O)n1C`, the GI50 is 23.1 µM (inactive) in [1]; 19.8 µM (inactive) in assay [2]; 37.2 µM (inactive) in assay [3]; 95.1 µM (inactive) in assay [4]; 17.5 µM (inactive) in assay [5]; 13.6 µM (inactive) in assay [6]. Further, the GI50 is 28 µM (inactive) in assay [7]; 20.3 µM (inactive) in assay [8]; 27.8 µM (inactive) in assay [9]; 20.5 µM (inactive) in assay [10]; 15.3 µM (inactive) in assay [11]; 15.8 µM (inactive) in assay [12]. Moreover, the GI50 is 25.2 µM (inactive) in [13]; 17.4 µM (inactive) in assay [14]; > 100 µM (inactive) in [15]; 24.3 µM (inactive) in assay [16]; 17.1 µM (inactive) in assay [17]; 18 µM (inactive) in assay [18]. Also, the GI50 in assay [19] is 20.2 µM (inactive); in assay [20], 43.5 µM (inactive).

`O/N=N/c1ccc2ccccc2n1`: the GI50 in [1], in assay [2], in assay [3], in assay [4], in [5] and in assay [6] was > 100 µM (inactive) throughout. In addition, the GI50 is > 100 µM (inactive) in assay [7]; > 100 µM (inactive) in assay [8]; > 100 µM (inactive) in assay [9]; > 100 µM (inactive) in [10]; > 10 µM (inactive) in [11]; > 100 µM (inactive) in assay [12]. The GI50 in assay [13], in assay [14], in assay [15], in assay [16], in assay [17] and in [18] was > 100 µM (inactive) each time. In addition, the GI50 in [19] and in assay [20] was > 100 µM (inactive) in each case.

For `O=c1[nH]nc(Cc2ccc(Cl)cc2)n1/N=C\CC/C=N\n1c(Cc2ccc(Cl)cc2)n[nH]c1=O`, the GI50 is 3.1 µM (inactive) in assay [1]; 20 µM (inactive) in assay [2]; > 100 µM (inactive) in [3]; 59.2 µM (inactive) in assay [4]; 18.5 µM (inactive) in assay [5]; 25.1 µM (inactive) in assay [6]. Moreover, the GI50 is > 93.1 µM (inactive) in assay [7]; > 26.2 µM (inactive) in assay [8]; 22.2 µM (inactive) in assay [9]; 27.2 µM (inactive) in [10]; > 100 µM (inactive) in [11]; > 24.1 µM (inactive) in [12]. Moreover, the GI50 in assay [13] was 25.8 µM (inactive); in assay [14] it was 50.9 µM (inactive); in assay [15], 8.83 µM (inactive); in assay [16], 12.2 µM (inactive); in assay [17] it was > 24.2 µM (inactive); in assay [18], 9.93 µM (inactive). In addition, the GI50 in [19] is 21.6 µM (inactive); in assay [20], 13.5 µM (inactive).

As to `CC(=O)Oc1c2ccsc2c(OC(C)=O)c2ccsc12`, the GI50 is 0.317 µM (active) in assay [1]; 1.89 µM (inactive) in assay [2]; 0.417 µM (active) in assay [3]; 0.714 µM (active) in [4]; 2.62 µM (inactive) in assay [5]; 0.483 µM (active) in assay [6]. In addition, the GI50 in [7] was 0.412 µM (active); in assay [8], 2.12 µM (inactive); in assay [9] it was 0.284 µM (active); in [10], 0.764 µM (active); in [11] it was 1.76 µM (inactive); in assay [12], 0.955 µM (active). Moreover, the GI50 was 1.29 µM (inactive) in assay [13]; 0.189 µM (active) in assay [14]; 1.27 µM (inactive) in assay [15]; 0.384 µM (active) in assay [16]; 0.647 µM (active) in assay [17]; 1.79 µM (inactive) in assay [18]. Also, the GI50 in assay [19] is 0.667 µM (active); in assay [20] it was 0.906 µM (active).

Source of the values: ChEMBL document CHEMBL1201862, “PubChem BioAssay data set” (2004).
